Experimental data taken from PubChem BioAssay (NCI).
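Interpolation was linear, between the two tested concentrations surrounding the appropriate level; five concentrations were tested over 48 hours in 96-well plates. At the GI50, growth is halved. At the TGI there is no net growth.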

Key:
Experiment in all cases: growth of human tumour cells (NCI), 48 h
EKVX NSCLC = test system: EKVX NSCLC
HCT-15 colon = test system: HCT-15 colon
HL-60(TB) leukemia = test system: HL-60(TB) leukemia
KM12 colon = test system: KM12 colon
M14 melanoma = test system: M14 melanoma
MOLT-4 leukemia = test system: MOLT-4 leukemia
NCI-H226 lung = test system: NCI-H226 lung
OVCAR-8 ovarian = test system: OVCAR-8 ovarian
TK-10 renal = test system: TK-10 renal
U251 CNS = test system: U251 CNS

SMILES | TGI (EKVX NSCLC) [µM] | TGI (HCT-15 colon) [µM] | TGI (HL-60(TB) leukemia) [µM] | TGI (KM12 colon) [µM] | TGI (M14 melanoma) [µM] | TGI (MOLT-4 leukemia) [µM] | TGI (NCI-H226 lung) [µM] | TGI (OVCAR-8 ovarian) [µM] | TGI (TK-10 renal) [µM] | TGI (U251 CNS) [µM] | GI50 (EKVX NSCLC) [µM] | GI50 (HCT-15 colon) [µM] | GI50 (HL-60(TB) leukemia) [µM] | GI50 (KM12 colon) [µM] | GI50 (M14 melanoma) [µM] | GI50 (MOLT-4 leukemia) [µM] | GI50 (NCI-H226 lung) [µM] | GI50 (OVCAR-8 ovarian) [µM] | GI50 (TK-10 renal) [µM] | GI50 (U251 CNS) [µM]
COC(=O)N/N=C(\C)C(CN(C)C)C(c1ccccc1)c1c(O)c2ccccc2oc1=O (stereo not drawn) | > 100 | > 100 | > 100 | > 100 | > 100 | > 100 | > 100 | > 100 | > 100 | > 100 |  |  |  |  |  |  |  |  |  | 
N#C/C(=C\c1ccccc1)C(NO)Nc1ccccc1 (stereo not drawn) | > 100 | > 100 | > 100 | > 100 | > 100 | > 100 | > 100 | > 100 | > 100 | > 100 |  |  |  |  |  |  |  |  |  | 
CCC[CH2][Sn]([CH2]CCC)([O]C(=O)c1cccc(F)c1F)[O]C(=O)c1cccc(F)c1F | 2.71 | 2.51 | 2.4 | 2.85 | 2.77 | 2.04 | 2.52 | 2.57 | 3.11 | 1.93 | 1.41 | 1.25 | 0.42 | 1.52 | 1.4 | 0.336 | 1.25 | 1.3 | 1.72 | 0.675
COc1ccc2c(c1)CCc1c(CO)c(COC(=O)NC(C)C)n(C)c1-2 | > 100 | 60.8 | 5.23 | 28.2 | 33.8 | 8.57 | 14.6 | 21.2 | > 100 | 35.8 |  |  |  |  |  |  |  |  |  | 
C[C@H](NC(=O)c1c(C(F)F)nn(C)c1Oc1cccc(C(F)(F)F)c1)c1ccc(C(=O)O)cc1 | > 100 | > 100 | > 100 | > 100 | > 100 | > 100 | > 100 | > 100 | > 100 | > 100 | > 100 | > 100 | > 100 | > 100 | > 100 | > 100 | > 100 | > 100 | > 100 | > 100
CC1=C(C#N)C(/C=C(\Cl)c2ccc(F)cc2)C(C#N)=C(C)N1 | > 100 | > 100 | > 100 | > 100 | > 100 | > 100 | > 100 | > 100 | > 100 | > 100 | > 100 | > 100 | 74 | > 100 | > 100 | > 100 | > 100 | > 100 | > 100 | > 100
CC(C)=C1CCC(CN2CCOCC2)C1=O (stereo not drawn) | 34.5 | 22 | 14 | > 51.4 | 14.6 | 5.54 | 46.1 | 27.8 | 19 | 48.9 |  |  |  |  |  |  |  |  |  | 
CC[C@@H](O)C[C@H]1CCC[C@@]2(C[C@@H]3OC(=O)/C=C/[C@@](C)(O)[C@@H](O)[C@H](C)[C@@H](O)[C@H](OC4CCC(N(C)C)C(C)O4)[C@@H](O)[C@](C)(O)CCCCC/C=C/[C@@H]4CC(C)(C)O[C@@]4(O)C[C@H](O2)[C@H]3C)O1 (stereo partly drawn) | 19.1 | 29.2 | > 39.8 | 24.4 | 7.48 | 23.3 | 29.6 | 20.3 | 21.6 | 36.8 |  |  |  |  |  |  |  |  |  | 
CCN(CC)c1ccc(/C=N/NC(=O)CSc2nc3ccccc3c(=O)n2Cc2ccc(S(N)(=O)=O)cc2)c(O)c1 | > 100 | > 100 | 5.38 | > 100 | 10.9 | > 100 | > 100 | > 100 | > 100 | > 100 | 0.65 | 3.62 | 0.412 | 0.569 | 0.452 | 0.372 | 0.895 | 0.932 | 1.66 | 0.51
CCN(CC)c1ccc(N=Nc2ccc(-c3nc4cccn(C)c-4n3)cc2)cc1 | 84.9 | 21 | 4.79 | 24.9 | 24.4 | 9.32 | 43.8 | 24 | 68.2 | 16.3 |  |  |  |  |  |  |  |  |  | 
CC1=C(C(=O)Nc2ccccc2)C(c2cc(Cl)cc(Cl)c2)C(C(=O)Nc2ccccc2)=C(C)N1 | 41.3 | 18.6 | 6.52 | 16.8 | 27.8 | 18.1 | 31.6 | 43.5 | 33.6 | 12.9 |  |  |  |  |  |  |  |  |  | 
C1CC2=C(C1)C1=S(S2)SC2=C1CCC2 | > 100 | > 100 | > 100 | > 100 | > 100 | > 100 | > 100 | > 100 | > 100 | > 100 |  |  |  |  |  |  |  |  |  | 
COc1ccc2c(c1)O/C(=C\c1cccc(OCC(=O)Nc3nc(C)c(C)s3)c1)C2=O | > 54.1 | > 100 | 3.16 |  | 0.368 | > 22.5 | > 100 | > 100 | > 100 | 3.08 | 8.42 | 6.76 | 1.48 | 1.02 | 0.175 | 3.38 | > 53 | 4.7 | 5.41 | 1.62
COc1ccc2nc3cccc([N+](=O)[O-])c3c(NCCNCCN(C)C)c2c1 | 1.43 |  | 0.352 | 0.414 | 0.208 | 0.192 | 0.629 | 0.277 | 1.09 | 0.404 | 0.261 | 0.131 | 0.0449 | 0.142 | 0.0734 | 0.022 | 0.219 | 0.044 | 0.194 | 0.0376
CCc1nn2ncccc2c1-c1ccnc(NC2CC2)n1 | > 25 | > 25 | > 25 | > 25 | > 25 | > 25 | > 25 | > 25 | > 25 | > 25 | > 25 | > 25 | > 25 | > 25 | > 25 | > 25 | 20.2 | > 25 | > 25 | > 25
Cc1cn2c(/C=N/N=C(N)N)c(-c3ccncc3)nc2s1 | 26.8 | > 100 | 40.1 | 19.6 | 30.3 | 32.2 | 40.5 | 30.9 | 28.6 | 31.6 | 12.5 | 44.1 | 19.7 | 5.63 | 16.7 | 7.74 | 21.8 | 14.7 | 15 | 17.8
